Assay results from the NIST ThermoML archive (doi:10.1021/je300590v).
± gives the expanded uncertainty stated by the source.

Assay: xn = mol fraction of the nth substance listed
Settings: Vibrating tube method

N#N [nitrogen] + O=C=O
mass density [kg/m3]
Settings | x2 = 0.8785 | x2 = 0.9873
273.15 K, 1001 kPa, Gas | 22.5 ± 0.2 | 21.9 ± 0.2
273.15 K, 2000 kPa, Gas | 43.7 ± 0.2 | –
273.15 K, 2001 kPa, Gas | – | 46 ± 0.2
273.15 K, 3001 kPa, Gas | 69.6 ± 0.2 | 76.9 ± 0.2
273.15 K, 3480 kPa, Gas | – | 98 ± 0.3
273.15 K, 3902 kPa, Liquid | – | 911.4 ± 0.9
273.15 K, 4000 kPa, Liquid | – | 911.6 ± 0.9
273.15 K, 4001 kPa, Gas | 104 ± 0.3 | –
273.15 K, 4100 kPa, Gas | 108.6 ± 0.3 | –
273.15 K, 5001 kPa, Liquid | – | 922.2 ± 1
273.15 K, 6000 kPa, Liquid | – | 930.9 ± 0.9
273.15 K, 7000 kPa, Liquid | – | 938.7 ± 1.1
273.15 K, 8001 kPa, Liquid | – | 946 ± 1
273.15 K, 8401 kPa, Liquid | 805 ± 1.3 | –
273.15 K, 9000 kPa, Liquid | – | 952.8 ± 1
273.15 K, 9001 kPa, Liquid | 811.5 ± 1.3 | –
273.15 K, 10000 kPa, Liquid | – | 959.2 ± 1
273.15 K, 10001 kPa, Liquid | 824 ± 1.2 | –
273.15 K, 11001 kPa, Liquid | – | 965.2 ± 0.9
273.15 K, 11003 kPa, Liquid | 836 ± 1.1 | –
273.15 K, 12000 kPa, Liquid | 847 ± 1.1 | 970.8 ± 0.9
273.15 K, 13001 kPa, Liquid | 856.6 ± 1 | –
273.15 K, 13002 kPa, Liquid | – | 976.3 ± 0.9
273.15 K, 14000 kPa, Liquid | 865.1 ± 1 | –
273.15 K, 14001 kPa, Liquid | – | 981.5 ± 0.9
273.15 K, 15001 kPa, Liquid | – | 986.6 ± 0.9
273.15 K, 15002 kPa, Liquid | 873.4 ± 0.9 | –
273.15 K, 16000 kPa, Liquid | – | 991.4 ± 0.9
273.15 K, 16001 kPa, Liquid | 880.8 ± 0.9 | –
273.15 K, 17000 kPa, Liquid | 887.8 ± 0.9 | –
273.15 K, 17002 kPa, Liquid | – | 996.1 ± 0.9
273.15 K, 18000 kPa, Liquid | 894.6 ± 0.9 | –
273.15 K, 18012 kPa, Liquid | – | 1000.6 ± 0.8
273.15 K, 19001 kPa, Liquid | 900.7 ± 0.9 | –
273.15 K, 19011 kPa, Liquid | – | 1004.8 ± 0.8
273.15 K, 20000 kPa, Liquid | 906.6 ± 0.9 | –
273.15 K, 20001 kPa, Liquid | – | 1008.7 ± 0.8
283.15 K, 1000 kPa, Gas | – | 20.1 ± 0.2
283.15 K, 1004 kPa, Gas | 19.4 ± 0.2 | –
283.15 K, 2000 kPa, Gas | – | 42.5 ± 0.2
283.15 K, 2001 kPa, Gas | 40.3 ± 0.2 | –
283.15 K, 3000 kPa, Gas | 64.6 ± 0.2 | 69.8 ± 0.2
283.15 K, 4000 kPa, Gas | – | 106.2 ± 0.3
283.15 K, 4001 kPa, Gas | 93.7 ± 0.3 | –
283.15 K, 4500 kPa, Gas | – | 131.6 ± 0.3
283.15 K, 5001 kPa, Gas | 131.6 ± 0.3 | –
283.15 K, 5101 kPa, Liquid | – | 841.4 ± 1.1
283.15 K, 5600 kPa, Gas | 170.5 ± 0.3 | –
283.15 K, 6001 kPa, Liquid | – | 857.5 ± 1.1
283.15 K, 7000 kPa, Liquid | – | 870.7 ± 1
283.15 K, 8000 kPa, Liquid | – | 882.2 ± 1.2
283.15 K, 9001 kPa, Liquid | 708.8 ± 1.9 | 892.5 ± 1.1
283.15 K, 10001 kPa, Liquid | – | 901.7 ± 1.1
283.15 K, 10002 kPa, Liquid | 736.1 ± 1.5 | –
283.15 K, 11001 kPa, Liquid | 757.6 ± 1.3 | 910.2 ± 1
283.15 K, 12000 kPa, Liquid | 775.3 ± 1.2 | –
283.15 K, 12001 kPa, Liquid | – | 918 ± 1
283.15 K, 13000 kPa, Liquid | – | 925.4 ± 1
283.15 K, 13002 kPa, Liquid | 790.5 ± 1.2 | –
283.15 K, 14000 kPa, Liquid | – | 932.2 ± 0.9
283.15 K, 14001 kPa, Liquid | 803.8 ± 1.1 | –
283.15 K, 15001 kPa, Liquid | – | 938.7 ± 0.9
283.15 K, 15002 kPa, Liquid | 815.4 ± 1 | –
283.15 K, 16001 kPa, Liquid | 825.4 ± 1 | 944.9 ± 0.9
283.15 K, 17000 kPa, Liquid | 835 ± 1 | –
283.15 K, 17001 kPa, Liquid | – | 950.9 ± 0.9
283.15 K, 18000 kPa, Liquid | 843.9 ± 1 | –
283.15 K, 18003 kPa, Liquid | – | 956.5 ± 0.9
283.15 K, 19001 kPa, Liquid | 852.1 ± 0.9 | –
283.15 K, 19002 kPa, Liquid | – | 961.9 ± 0.9
283.15 K, 20001 kPa, Liquid | 859.6 ± 0.9 | 967 ± 0.8
293.15 K, 1000 kPa, Gas | – | 18.4 ± 0.2
293.15 K, 1001 kPa, Gas | 18.8 ± 0.2 | –
293.15 K, 2000 kPa, Gas | 38.4 ± 0.2 | 39.5 ± 0.2
293.15 K, 3000 kPa, Gas | 60.8 ± 0.2 | –
293.15 K, 3001 kPa, Gas | – | 64.3 ± 0.2
293.15 K, 4001 kPa, Gas | 86.7 ± 0.2 | 94.5 ± 0.3
293.15 K, 5000 kPa, Gas | 117.2 ± 0.3 | 135.5 ± 0.3
293.15 K, 5700 kPa, Gas | – | 180.8 ± 0.5
293.15 K, 6000 kPa, Gas | 156.7 ± 0.4 | –
293.15 K, 6300 kPa, Liquid | – | 750.2 ± 1.3
293.15 K, 7000 kPa, Liquid | – | 775 ± 1.2
293.15 K, 7002 kPa, Gas | 213.8 ± 0.5 | –
293.15 K, 7601 kPa, Gas | 271.4 ± 0.3 | –
293.15 K, 8001 kPa, Liquid | – | 799.6 ± 1.5
293.15 K, 9000 kPa, Liquid | – | 818.4 ± 1.5
293.15 K, 9401 kPa, Liquid | 526.3 ± 2.6 | –
293.15 K, 10000 kPa, Liquid | – | 833.7 ± 1.3
293.15 K, 10001 kPa, Liquid | 579.5 ± 2.1 | –
293.15 K, 11001 kPa, Liquid | 633.1 ± 1.7 | –
293.15 K, 11002 kPa, Liquid | – | 846.8 ± 1.2
293.15 K, 12001 kPa, Liquid | – | 858.3 ± 1.1
293.15 K, 12002 kPa, Liquid | 669.7 ± 1.5 | –
293.15 K, 13000 kPa, Liquid | 696.3 ± 1.3 | 868.3 ± 1.1
293.15 K, 14000 kPa, Liquid | – | 877.6 ± 1
293.15 K, 14001 kPa, Liquid | 718.1 ± 1.3 | –
293.15 K, 15001 kPa, Liquid | 736.4 ± 1.2 | 886.2 ± 1
293.15 K, 16001 kPa, Liquid | 752.3 ± 1.1 | –
293.15 K, 16002 kPa, Liquid | – | 894.2 ± 1
293.15 K, 17000 kPa, Liquid | 766.2 ± 1.1 | –
293.15 K, 17001 kPa, Liquid | – | 901.7 ± 0.9
293.15 K, 18000 kPa, Liquid | 778.4 ± 1.1 | –
293.15 K, 18001 kPa, Liquid | – | 908.6 ± 0.9
293.15 K, 19001 kPa, Liquid | 789.6 ± 1 | 915.2 ± 0.9
293.15 K, 20000 kPa, Liquid | 799.8 ± 1 | –
293.15 K, 20001 kPa, Liquid | – | 921.4 ± 0.9
